Test results: US20230219911A1, “BENZOTHIAZOLE DERIVATIVES AND USES THEREOF” (SHENYANG PHARMACEUTICAL UNIVERSITY, priority 2020, published 2023)
Where two headings read alike, the source gives them in different places.

Assays:
[1] = target: T1, sEH enzyme (human recombinant) (Homo sapiens, UniProt P34913); experiment: in vitro sEH enzyme activity by fluorescence analysis, single concentration inhibition; format: biochemical; conditions: compound 0.1 μM; human recombinant sEH; PHOME substrate; 37° C. 15 min; read-out: sEH % inhibition, @ 0.1 μM
T1 construct: purchased Cayman Chemical
T1 sequence (P34913 1-555): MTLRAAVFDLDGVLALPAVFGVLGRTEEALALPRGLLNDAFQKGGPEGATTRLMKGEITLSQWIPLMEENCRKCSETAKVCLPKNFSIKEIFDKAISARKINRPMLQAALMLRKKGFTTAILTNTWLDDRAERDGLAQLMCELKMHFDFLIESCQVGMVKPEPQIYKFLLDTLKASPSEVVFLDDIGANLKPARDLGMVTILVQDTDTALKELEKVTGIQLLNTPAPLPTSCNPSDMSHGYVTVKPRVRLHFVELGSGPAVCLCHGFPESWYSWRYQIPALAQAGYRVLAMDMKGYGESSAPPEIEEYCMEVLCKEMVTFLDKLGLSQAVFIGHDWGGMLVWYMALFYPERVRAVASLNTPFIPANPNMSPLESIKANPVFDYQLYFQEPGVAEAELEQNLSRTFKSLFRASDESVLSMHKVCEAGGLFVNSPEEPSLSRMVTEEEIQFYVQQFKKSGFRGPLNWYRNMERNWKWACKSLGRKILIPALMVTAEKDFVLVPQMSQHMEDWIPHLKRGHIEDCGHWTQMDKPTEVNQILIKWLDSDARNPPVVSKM
Description: The benzothiazole skeleton compounds (concentration: 0.1 μM) according to the above formula I of the present invention were tested for the in vitro sEH enzyme activity by fluorescence analysis.
12 μL of sEH enzyme (human recombinant, 0.5 mg/mL, Cayman Chemical) was diluted with 588 μL of buffer (25 mM bis-Tris, pH 7.0). The fluorescent substrate was PHOME (cyano-(6-methoxy-naphthalen-2-yl)-methyl (3-phenyl-oxiranyl)-acetate) in DMSO (10 μM, Cayman Chemical). The compound to be tested was dissolved in 100% DMSO at a concentration of 4 μM. 185 μL of buffer (25 mM bis-Tris, pH 7.0), 5 μL of compound solution, and 5 μL of diluted sEH enzyme were added to the wells of a 96-well plate, and finally 5 μL of substrate solution was added to initiate the reaction. After incubating at 37° C. for 15 min, the fluorescence signal was measured with a microplate reader (excitation wavelength 330 nm, emission wavelength 465 nm).
Inhibition (%)=(F0−F1)/(F0)×100.

[2] = target: T1, sEH enzyme (human recombinant); experiment: in vitro IC50 of soluble epoxide hydrolase (sEH) by fluorescence analysis; format: biochemical
Description: The benzothiazole skeleton compounds according to the above formula I of the present invention were tested for the in vitro sEH enzyme activity by fluorescence analysis. […] 12 μL of sEH enzyme (human recombinant, 0.5 mg/mL, Cayman Chemical) was diluted with 588 μL of buffer (25 mM bis-Tris, pH 7.0). […] The inhibitions at different concentrations for the compound were respectively measured in accordance with the inhibition assay, to calculate IC50.

[3] = test system: carrageenan-induced paw swelling in KM mice; experiment: Measurement of anti-inflammatory effect, carrageenan-induced paw swelling; format: in vivo; conditions: intraperitoneal injection 1 hour before carrageenan, FIG. 3
Description: 1 hour in advance, the mice were intraperitoneally injected with the solutions of the compounds of Examples 12, 18, 27, and 40 (10% PEG 400, 10% Tween 80) or the blank solvent, respectively. Taking the initial paw thickness of the mice before modeling as 100%, the changes in the paw thickness of the mice were measured.

[4] = test system: unilateral ureteral obstruction (UUO) C57BL/6J mice; experiment: Measurement of anti-fibrosis effect, unilateral ureteral obstruction (UUO) model; format: in vivo; conditions: intraperitoneal 30 mg·kg−1·d−1, 7 days after modeling
Description: Male C57BL/6J mice (6 to 8 weeks old) (SPF (Beijing) Biotechnology Co., Ltd.) were divided into 3 groups: sham group, unilateral ureteral obstruction (UUO) group, and UUO+Ex. 16 compound group. After the mice were anesthetized, the left ureter was ligated and cut to create a model. In the sham group, the ureter was only isolated without ligation. The experimental animals were administrated 72 hours before modeling, and the aqueous solution of Ex. 16 compound (10% PEG400, 10% Tween 80, concentration: 9 mg/mL) was intraperitoneally injected at a dose of 30 mg·kg^−1·d^−1; and the sham group and UUO group were intraperitoneally injected with an equal volume of blank solvent. 7 days after modeling, the animals were sacrificed, and samples were taken for testing.

[5] = human recombinant sEH, PHOME substrate, read-out: IC50

inhibition at 0.1 µM [1] [%] | IC50 [2, 5] [nM] | Compound | IC50 [2] [nM] | other results
70.4 | 27.1 | CN(C)CCN(C(=O)Nc1ccc(Cl)cc1)c1ccc2nc(N)sc2c1 [Example 25, 1-(2-aminobenzo[d]thiazol-6-yl)-1-[2-(N,N-dimethylamino)ethyl]-3-(4-chlorophenyl)urea] |  | 
63.9 | 2.8 | Nc1nc2ccc(N(CCN3CCOCC3)C(=O)Nc3ccc(C(F)(F)F)cc3)cc2s1 [Example 13, 1-(2-aminobenzo[d]thiazol-6-yl)-1-[2-(4-morpholinyl)ethyl]-3-(4-trifluoromethylphenyl)urea] |  | 
59.9 | 9.2 | O=C(Nc1ccc(Cl)cc1)Nc1ccc2nc(NC(=O)Nc3ccc(Cl)cc3)sc2c1 [Example 7, 1,1′-(benzo[d]thiazol-2,6-diyl)bis[3-(4-chlorophenyl)urea]] |  | 
69 | 2.6 | CCOC(=O)CNc1nc2ccc(N(CCN3CCOCC3)C(=O)Nc3ccc(Cl)cc3)cc2s1 [Example 29] |  | 
79.7 | 0.25 | Nc1nc2ccc(N(CCN3CCOCC3)C(=O)Nc3ccc(F)c(Br)c3)cc2s1 [Example 16, 1-(2-aminobenzo[d]thiazol-6-yl)-1-[2-(4-morpholinyl)ethyl]-3-(3-bromo-4-fluorophenyl)urea] |  | level of EETs in mouse kidney tissue ([4]; FIG. 1): maintain the level of EETs; collagen deposition ([4]; FIG. 2): reduce the collagen deposition; fibrotic areas ([4]; FIG. 2): decrease the fibrotic areas
27.5 | 1.9 | CC(=O)Nc1nc2ccc(N(CCN3CCOCC3)C(=O)Nc3ccc(Cl)cc3)cc2s1 [Example 30, 1-(2-acetamidobenzo[d]thiazol-6-yl)-1-[2-(4-morpholinyl)ethyl]-3-(4-chlorophenyl)urea] |  | 

Compound | inhibition at 0.1 µM [1] [%] | IC50 [2, 5] [nM] | IC50 [2] [nM] | other results
CCc1ccc(NC(=O)N(CCN2CCOCC2)c2ccc3nc(N)sc3c2)cc1 [Example 18, 1-(2-aminobenzo[d]thiazol-6-yl)-1-[2-(4-morpholinyl)ethyl]-3-(4-ethylphenyl)urea] | 84.7 |  | 6.7 | carrageenan-induced paw swelling (paw thickness) [3]: significantly inhibit; effect on paw swelling compared with celecoxib [3]: better than that of celecoxib
Nc1nc2ccc(NC(=O)Nc3ccc(Cl)cc3)cc2s1 [Example 1, 1-(2-aminobenzo[d]thiazol-6-yl)-3-(4-chlorophenyl)urea] | 76.1 |  | 4.8 | 
O=C(Cc1ccccc1)Nc1nc2ccc(N(CCN3CCOCC3)C(=O)Nc3ccc(Cl)cc3)cc2s1 [Example 27, 1-(2-phenylacetamidobenzo[d]thiazol-6-yl)-1-[2-(4-morpholinyl)ethyl]-3-(4-chlorophenyl)urea] | 79.4 |  | 0.02 | carrageenan-induced paw swelling (paw thickness) [3]: significantly inhibit; effect on paw swelling compared with celecoxib [3]: better than that of celecoxib
Nc1nc2ccc(NC(=O)NC34C[C@H]5C[C@@H](C3)C[C@@H](C4)C5)cc2s1 [Example 4, 1-(2-aminobenzo[d]thiazol-6-yl)-3-[(3s,5s,7s)-adamantan-1-yl]urea] | 77.3 |  | 122 | 
